Drawing on PubChem BioAssay (NCI), this text covers TGI and GI50 for 21 compounds.

Where “and” joins values, the source holds several entries; their conditions need not be identical. Equal entries are not always repeated.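 The compound was tested at five concentrations on cells cultured in 96-well plates, with a 48-hour exposure period. The concentration for 50% growth inhibition is given as GI50. TGI is the concentration that stops growth completely.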 A value given as a limit tells only on which side of the number the result lay.

Test systems include HCT-116 colon; OVCAR-4 ovarian; SK-MEL-28 melanoma; SF-295 CNS; M14 melanoma; SF-268 CNS; HCC-2998 colon; UACC-62 melanoma; IGROV1 ovarian; A498 renal.
Holding throughout (assay): NCI anticancer screen, dose series, 48 h

`C=CC1[C@H]2COC(C)(C)O[C@@H]2CC(=O)C1(C)C` (some centres undefined): the TGI in the test on HCT-116 colon, in the test on OVCAR-4 ovarian, in the test with SK-MEL-28 melanoma, in the test on SF-295 CNS, in the test with M14 melanoma and in the test on SF-268 CNS was above 100 µM in each case. The TGI with HCC-2998 colon was above 100 µM.

As for `COC[C@@H](N=CN1CCc2cc(OC)c(OC)cc2[C@@H]1C)C(C)(C)C`, the TGI in the test with HCT-116 colon, in the test on OVCAR-4 ovarian, in the test with SK-MEL-28 melanoma, with SF-295 CNS, in the test on UACC-62 melanoma and with M14 melanoma was above 100 µM each time. Also, the TGI in the test on IGROV1 ovarian and in the test on SF-268 CNS was above 100 µM each time.

For `Cn1nc(-c2ccccc2)c(C(=O)/C=C/c2ccc(F)cc2)c(N2CCCCC2)c1=O`, the TGI stood at 11.5 µM in the test with HCT-116 colon; 16.2 µM in the test on SK-MEL-28 melanoma; 30 µM in the test with UACC-62 melanoma; 28.6 µM in the test with M14 melanoma; 38.2 µM in the test with IGROV1 ovarian; 37 µM in the test with SF-268 CNS.

Turning to `CC12N=NN(c3ccc([N+](=O)[O-])cc3)C1(O)c1ccccc1C2=O` (centres undefined), the TGI with HCT-116 colon, with SF-295 CNS, with UACC-62 melanoma, in the test on M14 melanoma, in the test on IGROV1 ovarian and in the test on SF-268 CNS was above 100 µM each time. The same compound returned a TGI with HCC-2998 colon above 100 µM.

For the compound `CO/C(=N\N=C\c1cccc(Cl)c1)c1ccncc1`, the TGI in the test on HCT-116 colon, in the test with OVCAR-4 ovarian, with SF-295 CNS, in the test on M14 melanoma, in the test with SF-268 CNS and in the test on HCC-2998 colon was above 10 µM throughout.

As for `CN(C)c1ccc([O-])cc1.CN(C)c1ccc([O-])cc1.CN(C)c1ccc([O-])cc1.CN(C)c1ccc([O-])cc1.[Ti+4]`, the GI50 in the test with HCT-116 colon is above 100 µM; in the test on A498 renal, 19.4 µM; with OVCAR-4 ovarian it was 75.3 µM; in the test on SK-MEL-28 melanoma, above 100 µM; in the test with SF-295 CNS, above 100 µM; in the test on UACC-62 melanoma it was above 100 µM. Also, the GI50 in the test with M14 melanoma, with IGROV1 ovarian and with SF-268 CNS was above 100 µM each time. Besides, the TGI with HCT-116 colon, in the test on A498 renal, with OVCAR-4 ovarian, with SK-MEL-28 melanoma, with SF-295 CNS and in the test on UACC-62 melanoma was above 100 µM in each case. The TGI in the test on M14 melanoma, in the test on IGROV1 ovarian and with SF-268 CNS was above 100 µM throughout.

Consider `CC(=O)Nc1ccc(C(=O)NN2C(=O)C(Cl)C2c2ccc([N+](=O)[O-])cc2)cc1` (centres undefined), for which the TGI in the test with HCT-116 colon, in the test with A498 renal, with OVCAR-4 ovarian, in the test with SK-MEL-28 melanoma, in the test with SF-295 CNS and in the test with UACC-62 melanoma was above 100 µM in each case. Further, the TGI in the test on M14 melanoma, in the test on IGROV1 ovarian and in the test on SF-268 CNS was above 100 µM in each case.

Turning to `COc1ccccc1N=C(N)N/N=C/c1c[nH]c2ccccc12`, the TGI turned out to be 19.6 µM in the test with HCT-116 colon; 31.3 µM with OVCAR-4 ovarian; 16.3 µM in the test on SK-MEL-28 melanoma; 21.3 µM in the test on SF-295 CNS; 27 µM with UACC-62 melanoma; 10.5 µM in the test on M14 melanoma. Further, the TGI with IGROV1 ovarian worked out at 28.9 µM; in the test with SF-268 CNS it was 29.1 µM; in the test with HCC-2998 colon it was 6.27 µM.

As for `CC(C)=CCC/C(C)=C/CC/C(C)=C/Cc1c(O)c2ccccc2oc1=O`, the TGI in the test on HCT-116 colon, with OVCAR-4 ovarian, with SK-MEL-28 melanoma, with SF-295 CNS, in the test with UACC-62 melanoma and in the test on M14 melanoma was above 100 µM each time. Also, the TGI with IGROV1 ovarian, in the test with SF-268 CNS and in the test with HCC-2998 colon was above 100 µM in each case.

Consider `O=C1C=CC=CC2CC=C[C@@H](O)C12` (some centres undefined), for which the TGI in the test on HCT-116 colon was 27.7 µM; with A498 renal, 38.2 µM; in the test on OVCAR-4 ovarian, above 100 µM; with SF-295 CNS, 48.5 µM; in the test with UACC-62 melanoma it was 38.5 µM; in the test with M14 melanoma, 50.7 µM. Moreover, the TGI with IGROV1 ovarian was above 100 µM; in the test with SF-268 CNS, 54.5 µM.

Turning to `Cc1ccc(S(=O)(=O)NCCNC2=CC(=O)c3nc4ccccc4c4ccnc2c34)cc1`, the GI50 in the test on HCT-116 colon is 26.9 µM; with A498 renal, 24.1 µM; with OVCAR-4 ovarian, 26.8 µM; in the test with SK-MEL-28 melanoma, 26.7 µM; in the test with SF-295 CNS it was 17.7 µM; in the test on UACC-62 melanoma, 20.6 µM. In addition, the figures for the GI50 in the test on M14 melanoma, in the test on IGROV1 ovarian and with SF-268 CNS were 15.7 µM, 19.9 µM and 19.1 µM, respectively. The TGI with HCT-116 colon is above 100 µM; in the test on A498 renal, 53.1 µM; in the test on OVCAR-4 ovarian, above 100 µM; with SK-MEL-28 melanoma it was 57.9 µM; with SF-295 CNS, 39 µM; in the test with UACC-62 melanoma, 44.5 µM. The figures for the TGI in the test with M14 melanoma, in the test on IGROV1 ovarian and in the test on SF-268 CNS were 58.2 µM, 51.9 µM and 52.3 µM, respectively.

Regarding `COc1cc(/C=C\c2ccc(C)cc2)cc(OC)c1OC`, the TGI is 46.5 µM in the test on OVCAR-4 ovarian; above 100 µM in the test with IGROV1 ovarian; above 63.3 µM in the test with SF-268 CNS; 0.215 µM and < 0.0303 µM with HCC-2998 colon. The figures for the GI50 in the test with SF-295 CNS, in the test with SF-268 CNS and with HCC-2998 colon were 0.00818 µM, below 0.0136 µM and below 0.0129 µM, respectively.

Take `Nc1nc2c(c(=O)[nH]1)NC(CO)CN2` (centres undefined): the TGI in the test with HCT-116 colon, in the test on SK-MEL-28 melanoma, in the test with SF-295 CNS, with UACC-62 melanoma, with M14 melanoma and in the test with IGROV1 ovarian was above 100 µM in each case.

On to `CC1CC2CC(=O)CC3(C1)C2CCCN3CCCO` (centres undefined), for which the TGI with HCT-116 colon, in the test on A498 renal, with OVCAR-4 ovarian, in the test on SK-MEL-28 melanoma, in the test on SF-295 CNS and in the test with UACC-62 melanoma was above 100 µM throughout. Besides, the TGI in the test on M14 melanoma, with IGROV1 ovarian and with SF-268 CNS was above 100 µM each time.

`CC1(C)C(=O)C(C)(C)C1=NN`: the TGI with HCT-116 colon, with OVCAR-4 ovarian, in the test with SK-MEL-28 melanoma, with SF-295 CNS, in the test on UACC-62 melanoma and in the test with M14 melanoma was above 100 µM each time. For the same compound, the TGI with IGROV1 ovarian, in the test on SF-268 CNS and with HCC-2998 colon was above 100 µM throughout.

Consider `O=C(O)[C@@H]1[C@H](C(=O)O)[C@H](C(=O)O)C[C@@H]1C(=O)O`, for which the TGI in the test with HCT-116 colon, with A498 renal, in the test with OVCAR-4 ovarian, with SK-MEL-28 melanoma, with SF-295 CNS and in the test with UACC-62 melanoma was above 100 µM each time. The TGI in the test on M14 melanoma, with IGROV1 ovarian and in the test on SF-268 CNS was above 100 µM throughout.

Turning to `COc1cc(/C=C2\CCC/C(=C\c3cc(OC)c(O)c(OC)c3)C2=O)cc(OC)c1O`, the GI50 in the test on HCT-116 colon is 2.56 µM; in the test on A498 renal it was 2.18 µM; in the test with OVCAR-4 ovarian it was 8.24 µM; in the test on SK-MEL-28 melanoma, 3.12 µM; with SF-295 CNS it was 4.98 µM; in the test with M14 melanoma it was 2.9 µM. Moreover, the TGI in the test with A498 renal is 3.21 µM and 4.81 µM; with OVCAR-4 ovarian it was 75 µM and > 100 µM; with SK-MEL-28 melanoma it was 75 µM and 24.8 µM; in the test with UACC-62 melanoma, 5.2 µM; with M14 melanoma, 75 µM and 69.4 µM; with IGROV1 ovarian, 3.89 µM. The TGI in the test with SF-268 CNS was above 100 µM.

For the compound `COc1ccc2c(c1)/C(=C\c1cccnc1)C(=O)N2`, the GI50 with HCT-116 colon was 9.72 µM; in the test on A498 renal it was 23.4 µM; in the test on OVCAR-4 ovarian it was 38.2 µM; in the test with SK-MEL-28 melanoma, 23.4 µM; in the test on SF-295 CNS, 13.4 µM; with M14 melanoma, 31 µM. Moreover, the GI50 in the test on IGROV1 ovarian is 32.2 µM; in the test with SF-268 CNS, 12.9 µM. Further, the TGI in the test on HCT-116 colon was above 100 µM; in the test on A498 renal it was 49.8 µM; in the test with OVCAR-4 ovarian it was above 100 µM; in the test on SK-MEL-28 melanoma, 64.7 µM; in the test with SF-295 CNS, 60.4 µM; in the test on M14 melanoma, 83.8 µM. Also, the TGI is above 100 µM in the test with IGROV1 ovarian and 37 µM in the test with SF-268 CNS.

Take `O=C(Nc1cccs1)c1c(O)[nH]c(=S)[nH]c1=O`: the TGI in the test on A498 renal, in the test with OVCAR-4 ovarian, with SK-MEL-28 melanoma, with SF-295 CNS, in the test with UACC-62 melanoma and with M14 melanoma was above 100 µM in each case. Also, the TGI in the test on IGROV1 ovarian and in the test on SF-268 CNS was above 100 µM in each case.

For the compound `CCCn1c(SC)nc(COC(=O)NC)c1COC(=O)NC`, the TGI in the test on HCT-116 colon, in the test on A498 renal, with OVCAR-4 ovarian, with SK-MEL-28 melanoma, in the test with SF-295 CNS and in the test with UACC-62 melanoma was above 100 µM each time. The TGI in the test with M14 melanoma, in the test with IGROV1 ovarian and with SF-268 CNS was above 100 µM throughout.

For `CCOC(=O)C1=C(c2ccccc2)N(C)c2ccccc2S1`, the TGI is 73.3 µM in the test on HCT-116 colon; above 100 µM with OVCAR-4 ovarian; above 100 µM in the test on SK-MEL-28 melanoma; above 100 µM with SF-295 CNS; 53.2 µM in the test on UACC-62 melanoma; above 100 µM with M14 melanoma. Besides, the results for the TGI with IGROV1 ovarian and with SF-268 CNS were above 100 µM and 97.3 µM, respectively.
